From patent publication US8420696B2, “Use of low-dose ladostigil for neuroprotection” (priority 2005, dated 2013)

How the values were obtained:
microglia and astrocytes = test: Example 2: microglia and astrocyte activation at cannula penetration site after icv STZ; type: in vivo, Sprague-Dawley rats
Description: (§1) Male Sprague-Dawley rats (63) weighing 320-340 g, aged 4 months, were anesthetized by an intraperitoneal injection of Equithesin 0.3 ml/kg. STZ (0.5 mg) dissolved in 2 μl artificial cerebrospinal fluid (CSF) was injected into each lateral ventricle of 45 rats. The stereotaxic co-ordinates for icv injection were: 0.9 mm posterior, 1.8 mm lateral and 3.8 mm ventral from the bregma level. Control rats (18) received a bilateral injection of 2 μl artificial CSF. STZ-injected rats (25) were given ladostigil (1 mg/kg of the hemitartrate salt/day) orally in a volume of (1 ml/kg) from one week before, until 1 or 8 weeks after icv STZ. The remaining 20 rats received 1 ml/kg water. The rats were housed two per cage with free access to food and water until the behavioral, enzymatic and cytochemical measurements were completed.
One week after icv injection, 8 rats injected with icv CSF, 7 rats given STZ alone, and 7 treated with ladostigil were anesthetized with sodium pentobarbitone, perfused transcardially and the brains processed for immunocytochemistry. […]
Nitrotyrosine, (NT) a marker of nitrative/oxidative stress, was stained with rabbit anti-nitrotyrosine from Upstate (Lake Placid, N.Y., USA), diluted 1:100 followed by the secondary donkey anti-rabbit conjugated with horseradish peroxidase from Chemicon (Temecula, Calif., USA), was diluted 1:200. […] Images were obtained by bright field microscopy and quantitative assessments of appropriate markers were made using AnalySIS software. […]
Three distinct zones were distinguished in the vicinity of the cortical injection site after icv STZ injection containing astrocytes and microglia with differing morphology. Quantification of microglia and astrocytes in the three zones was made in sections sampled in a range of P0.2-0.8 mm from the bregma. The area of each zone containing the different types of astrocytes was measured and the percentage that each zone occupied in the wound area was calculated (Statistica software, StatSoft, USA). The classes of microglia were counted separately in each zone. […]

[1] = test system: rats injected icv with STZ (spatial memory); test: Place recognition test after icv STZ; type: in vivo, Sprague-Dawley rats
Description: as §1
Episodic memory in the object recognition test was still intact 2 but not 4 weeks after a single icv STZ injection (Table 3). […] The object recognition test measured non-spatial working memory with characteristics of episodic memory that is primarily affected in senile dementia (Bartolini et al., Aniracetam restores object recognition impaired by age, scopolamine, and nucleus basalis lesions, Pharmacol. Biochem. Behav. (1996) 53:277-83). […] Two identical objects were placed in the arena and the time taken by the rats to explore each object during a period of 3 min was recorded. […]

[2] = test system: dopaminergic neuroblastoma SH-SY5Y cells; conditions: cited from earlier work

For `C#CCN[C@@H]1CCc2ccc(OC(=O)N(C)CC)cc21` [ladostigil, R(+)-6-(N-methyl,N-ethyl-carbamoyloxy)-N′-propargyl-1-aminoindan], the “Changes in microglia and astrocytes in zones i) and iii) resulting from icv STZ” value (microglia and astrocytes; 1 mg/kg/day hemitartrate orally, seven days after icv STZ) was “prevented the changes”, the “Density of fibrous microglia in zone ii)” value (microglia and astrocytes; 1 mg/kg/day orally, seven days after icv STZ) was “no effect” and the “Scar morphology at cannula penetration site” value (microglia and astrocytes; eight weeks after icv STZ, with or without ladostigil) was “No differences”. The “Discrimination index, Place” value ([1]; STZ (4 weeks) + ladostigil 1 mg/kg chronic, mean ± s.e.m.) was 0.211 ± 0.07, the “Discrimination in place recognition test” value ([1]; icv STZ with chronic ladostigil, significantly >0, P<0.05) was “significant discrimination index” and the “Apoptosis in SH-SY5Y cells exposed to the NO donor Sin1” value ([2]; 0.1-1 μM) was “prevented apoptosis”. For the same compound, the “Apoptosis induced by Sin-1 in cultured SH-SY5Y cells” value [2] was “suppress apoptosis”.
